{"source": "patent US4657927A", "about": "“Malonato platinum compounds” (Research Corporation, priority 1983, dated 1987)", "test_system": "Sarcoma 180", "experiment": "Antitumor activity, solid sarcoma 180 tumor, T/C of tumor weights at day 10 (Table I)", "type": "in vivo, female Swiss white mice", "experimental": "The compounds of the invention were tested for antitumor activity, i.e., for sensitivity to a planar dsp^2 platinum(II) coordination compound or an octahedral d^2 sp^3 platinum(IV) coordination compound using our standard screening tumor, solid sarcoma 180 tumor in female Swiss white mice, following standard protocols for this testing as set by the National Cancer Institute. (Cancer Chemotherapy Rep., 25 (1962)).\nFor these tests an S 180 tumor taken from a sacrificed mouse was disected free of superfluous tissue and cut under sterile conditions into approximately 10 milligram size pieces. These tissue pieces were then implanted by trocar in the left axillary region, subcutaneously, in new mice. The mice were, on the average, approximately four weeks old and weighed 18-20 grams. Taking day 0 as the day of implant, the animals were sacrificed on day 10. The tumors were excised and weighed and the ratio of the weights of the tumors in mice in the treated animals to the control set of animals was obtained. This ratio, multiplied by 100, is given as the T/C ratio in Table I.\nFor the first set of tests the coordination compound was freshly dissolved in sterile distilled water and injected intraperitoneally on day 1 into each of the test mice. The volume of the injection was usually 1/2 ml. In some cases, in order to get an active dose into the animal where the chemical was not soluble in this amount of solvent, a fine dispersion was prepared of the dose needed for the test. Thus, some of our test results were obtained on animals where a slurry of the compound was injected. These are so noted in Table I below. In addition, for some of the compounds, there was injected about 1 ml of solution, either in one single injection, or in 2 injections given a few hours apart of 1/2 ml each. These injections were initially given in 4 different dose levels for each new compound with 6 mice in each dose level. The tests covered a dose range from a low ineffective dose, to an upper dose level which produced some deaths within the time period of the experiment.", "key": {"[1]": {"conditions": "20 mg/kg, single i.p. injection day 1"}, "[2]": {"conditions": "40 mg/kg, single i.p. injection day 1"}, "[3]": {"conditions": "60 mg/kg, single i.p. injection day 1"}, "[4]": {"conditions": "80 mg/kg, single i.p. injection day 1"}, "[5]": {"conditions": "100 mg/kg, single i.p. injection day 1"}, "[6]": {"conditions": "120 mg/kg, single i.p. injection day 1"}, "[7]": {"conditions": "160 mg/kg, single i.p. injection day 1"}, "[8]": {"conditions": "30 mg/kg, single i.p. injection day 1, solution in H2O"}, "[9]": {"conditions": "40 mg/kg, single i.p. injection day 1, solution in H2O"}, "[10]": {"conditions": "50 mg/kg, single i.p. injection day 1, solution in H2O"}, "[11]": {"conditions": "60 mg/kg, single i.p. injection day 1, solution in H2O"}, "[12]": {"conditions": "dose level 20 (unit not given), single i.p. injection day 1"}, "[13]": {"conditions": "dose level 40 (unit not given), single i.p. injection day 1"}, "[14]": {"conditions": "dose level 60 (unit not given), single i.p. injection day 1"}, "[15]": {"conditions": "dose level 80 (unit not given), single i.p. injection day 1"}, "[16]": {"conditions": "140 mg/kg, single i.p. injection day 1"}, "[17]": {"conditions": "180 mg/kg, single i.p. injection day 1"}}, "data": [{"smiles": "N.N.O=C([O-])C1(C(=O)[O-])CCC1.[Pt+4]", "note": "[1,1-cyclobutanedicarboxylate diammineplatinum (II)]", "values": [{"measurement": "No. of Deaths", "setting": "[1]", "result": 0}, {"measurement": "T/C", "setting": "[1]", "result": 71}, {"measurement": "No. of Deaths", "setting": "[2]", "result": 0}, {"measurement": "T/C", "setting": "[2]", "result": 60}, {"measurement": "No. of Deaths", "setting": "[3]", "result": 0}, {"measurement": "T/C", "setting": "[3]", "result": 38}, {"measurement": "No. of Deaths", "setting": "[4]", "result": 0}, {"measurement": "T/C", "setting": "[4]", "result": 42}, {"measurement": "No. of Deaths", "setting": "[5]", "result": 0}, {"measurement": "T/C", "setting": "[5]", "result": 69}, {"measurement": "No. of Deaths", "setting": "[6]", "result": 0}, {"measurement": "T/C", "setting": "[6]", "result": 18}, {"measurement": "No. of Deaths", "setting": "[7]", "result": 4}, {"measurement": "T/C", "setting": "[7]", "result": 62}]}, {"smiles": "CC1C(=O)[O][Pt]([NH2])([NH2])[O]C1=O", "note": "[Methylmalonatodiammineplatinum (II)]", "values": [{"measurement": "No. of Deaths", "setting": "[8]", "result": 0}, {"measurement": "T/C", "setting": "[8]", "result": 39}, {"measurement": "No. of Deaths", "setting": "[9]", "result": 0}, {"measurement": "T/C", "setting": "[9]", "result": 26}, {"measurement": "No. of Deaths", "setting": "[10]", "result": 0}, {"measurement": "T/C", "setting": "[10]", "result": 35}, {"measurement": "No. of Deaths", "setting": "[11]", "result": 0}, {"measurement": "T/C", "setting": "[11]", "result": 6}, {"measurement": "No. of Deaths", "setting": "70 mg/kg, single i.p. injection day 1, solution in H2O", "result": "3/6"}, {"measurement": "No. of Deaths", "setting": "80 mg/kg, single i.p. injection day 1, solution in H2O", "result": "6/6"}]}, {"smiles": "NCCCN.O=C([O-])CC(=O)[O-].[Pt+2]", "note": "[malonato-1,3 propylenediamineplatinum (II)]", "values": [{"measurement": "No. of Deaths", "setting": "[12]", "result": 0}, {"measurement": "T/C", "setting": "[12]", "result": 69}, {"measurement": "No. of Deaths", "setting": "[13]", "result": 0}, {"measurement": "T/C", "setting": "[13]", "result": 79}, {"measurement": "No. of Deaths", "setting": "[14]", "result": 0}, {"measurement": "T/C", "setting": "[14]", "result": 21}, {"measurement": "No. of Deaths", "setting": "[15]", "result": 1}, {"measurement": "T/C", "setting": "[15]", "result": 35}]}, {"smiles": "CN.CN.O=C([O-])CC(=O)[O-].[Pt+2]", "note": "[malonatobis (methylamine) platinum (II)]", "values": [{"measurement": "No. of Deaths", "setting": "[4]", "result": 0}, {"measurement": "T/C", "setting": "[4]", "result": 58}, {"measurement": "No. of Deaths", "setting": "[5]", "result": 0}, {"measurement": "T/C", "setting": "[5]", "result": 53}, {"measurement": "No. of Deaths", "setting": "[6]", "result": 0}, {"measurement": "T/C", "setting": "[6]", "result": 28}, {"measurement": "No. of Deaths", "setting": "[16]", "result": 0}, {"measurement": "T/C", "setting": "[16]", "result": 25}, {"measurement": "No. of Deaths", "setting": "[7]", "result": 1}, {"measurement": "T/C", "setting": "[7]", "result": 17}, {"measurement": "No. of Deaths", "setting": "[17]", "result": 1}, {"measurement": "T/C", "setting": "[17]", "result": 19}]}]}
